Experiments:
[1] = system: IL-1β production in human peripheral lymphocytes; test: IL-1β production in LPS-stimulated human peripheral lymphocytes (intracellular Caspase-1 inhibition); assay type: cell-based; conditions: Lymphocyte, 10 ng/ml LPS, 12 hours, read-out: CIC50 (IL-1β production)
Protocol: Inhibitory activity for Caspase-1 was determined by screening the effects of the compounds on the IL-1β production in the periphery lymphocytes stimulated with LPS. Briefly, 500,000 cells/ml of human peripheral lymphocytes were treated with the test compounds at various concentrations for 2 hours and then with 10 ng/ml of LPS. After incubating the cells for 12 hours, the supernatant samples from the media were analysed by immunoantibody analysis (Amersham) in which 100 ng/well of human IL-1β antibody is coated (Range: CIC50: 0.1˜10 μM).

[2] = system: caspase-3-like activity (Ac-DEVD-pNA); test: Caspase-3-like activity in TNFα/ActD-treated primary rat hepatocytes; assay type: cell-based; conditions: 100 μM, 8 hrs
Protocol: (§1) Primary rat hepatocytes were isolated and purified from male Sprague-Dawley rats using a collagenase digestion method. The hepatocytes were purified over 30% Percoll gradient by centrifugation at 1,000×g for 10 min. at 4° C. […] The cells were plated on collagen-coated tissue culture plates at a density of 2×10^5 cells/well in 12-well plates for cell viability analysis or 5×10^6 cells/100 mm dish for enzyme assays. After 18 hrs preculture, the cells were treated with 2,000 units/ml TNFα and 0.2 μg/ml Actinomycin (ActD). Caspase activity and cell viability was determined by colorimetry using a caspase substrate Ac-DEVD-pNA and crystal violet staining method at 8 hrs and 12 hrs, respectively.

[3] = system: primary rat hepatocytes; test: Cell viability of TNFα/ActD-treated primary rat hepatocytes (crystal violet); assay type: cell-based; conditions: added at different time points
Protocol: as §1

[4] = system: hepatocytes in ConA-treated mouse liver; test: Con A-treated mouse liver: histologic examination and TUNEL detection of apoptosis; assay type: in vivo, mice; conditions: 4, 20, 100 mg/kg
Protocol: The present inventors estimated the prevalence of apoptotic cells in the mouse liver to certify the apoptosis-blocking effect of the compound of the present invention specifically in hepatocytes. Mice were treated ConA in the presence or absence of various dosages of compound 33 [A and G: ConA and vehicle treatment, B and H: ConA and compound 33 4 mg/kg treatment, C and I: ConA and compound 33 20 mg/kg treatment, D and J: ConA and compound 33 100 mg/kg treatment] to prepare frozen liver sections. Also, mice were treated with PBS and vehicle (E and K), or PBS and compound 33 100 mg/kg (F and L) to prepare frozen liver sections. Freshly excised mouse liver was immediately immersed in 25% sucrose solution at 4° C. for overnight, then frozen in liquid nitrogen, and cryosectioned into 4 μm.
For histological examination, liver sections were fixed in 1% buffered paraformaldehyde and stained with hematoxilin & eosin (FIGS. 6A to F). To detect apoptotic cells in liver, frozen liver was stained using an ApopTag in situ apoptosis peroxidase detection kit (terminal deoxynucleotidyl transferase-mediated dUTP nick end labeling: TUNEL assay) (Oncor, Gaithersburg, Md.) and DAKO liquid DAB (DAKO, Carpinteria, Calif.)(FIGS. 6G to L). Staining was conducted according to manufacturer's instruction After completion of staining, the samples were observed under an optical microscope. […]

[5] = system: Recombinant human caspase-1, -2, -3, -4, -6, -7, -8 and -9; test: Inhibition of caspase activity in cell free system (chromogenic pNA substrates); assay type: biochemical; conditions: 100 μM compound
Protocol: The pharmacological efficacy of the compound according to the present invention was evaluated by the following experiments. Con A was purchased from Boehringer Mannheim GmbH (Mannheim, Germany). Peptide-based substrates of caspases (Ac-YVAD-pNA for caspase-1, Ac-VDVAD for caspase-2, Ac-DEVD-pNA for caspase-3, 7, 8, and 9, Ac-LEVD-pNA for caspase-4, and Ac-VEID-pNA for caspase-6) and peptide-based caspase inhibitors (Ac-DEVD-fmk, z-VAD-CHO) were purchased from Alexis Co. (San Diego, Calif.). Ac-DEVD-CHO and z-DEVD-cmk were purchased from Bachem; Anti Fas antibody was purchased from Oncor (Cat#A8050); WI38 cell was available from ATCC; IFN-gamma was purchased from LG Pharmaceuticals (Korea). All cell culture-media and supplements were purchased from Gibco BRL (Tsuen Wan, Hong Kong) unless mentioned otherwise. […]
Caspase activity was tested by mewing proteolytic cleavage of peptide-based chromogenic substrate by each enzyme. […] Aliquots of the enzyme (2 μl containing catalytic activity of 0.2 absorbance at 405 nm/h) were mixed with 150 μl of 200 μM chromogenic substrate in the presence or absence of 100 μM compound 33 m, 96-well plates. […] The absorbance of enzymatically released pNA was measured discontinuously at 405 nm in a microplate reader for 1 hr. The caspase activity was calculated from initial velocity (meant±SE)(n=4, in which n represents the number of repeated experiment).

[6] = system: PARP cleavage; test: Western blotting of PARP cleavage in liver lysate of Con A-treated mice; assay type: in vivo; conditions: various doses
Protocol: In this experiment, the cleavage of PARP was identified by the appearance on Western blot analysis of an 85 kda-cleavage product in hepatic cell lysate obtained from mice treated with Con A and various doses of the compound of formula (I).
Freshly harvested livers treated with Con A or PBS together with various doses of compound 33 were rinsed in cold PBS and homogenized into three volumes per weight of cold PBS containing 1% Nonidet P-40, 0.1% SDS, 1 mM PMSF, and protease inhibitor cocktail tablet Complete (Boehnger Mannheim, used according to manufacturer's instruction). The homogenates were incubated on ice for 30 min. Samples were then centrifuged at 16,000×g for 30 min at 4° C. Supernatants were transferred to fresh tubes and centrifuged for additional 30 min. Harvested lysates were precleared by incubating with protein G-sepharose (Pharmacia, Uppsala, Sweden) at 4° C. for overnight, gently shaking. Supernatants were harvested by centrifugation at 1000×g for 30 sec. at 4° C. and separated on 7% SDS-polyacrylamide gel and transferred to nitrocellulose membrane. Blots were blocked for 1 hr at room temperature in PBS containing 5% skimmed milk and 0.1% Tween 20 under gentle shaking. Membranes were then incubated overnight with 1:1000 diluted monoclonal anti-PARP antibody (Pharmingen) under gentle shaking. […]

[7] = system: Con A-induced hepatitis in Balb/c mice; test: Con A-induced acute hepatitis mice: plasma aminotransferase activity; assay type: in vivo
Protocol: Female 6-week-old Balb/c mice (Charles River Laboratory, Osaka, Japan) were kept at 22° C. and 55% relative humidity in a 12-h day/night rhythm with free access to food and water. Con A was dissolved in pyrogen-free saline to a concentration of 2.5 mg/ml and was injected via the tail vein in an amount of 20 mg/kg based on Con A. The animals were i.p. injected twice with compound 33 dissolved into a vehicle which consists of olive oil and 10% DMSO, or a vehicle alone, at 1 hr before and 4 h after Con A injection Animals were sacrificed by cervical dislocation at 24 hrs after Con A injection to obtain liver and blood samples.
Blood samples obtained at step 1 were collected at 24 h after Con A injection Plasma AST and ALT activity were measured using Autokit (Youngdong Pharmaceutical Co., Seoul, Korea) following manufacturer's instruction.

Q: With `CC(C)[C@H](NC(=O)CCc1ccccc1)C1=NOC(Cc2ccccc2)(C(=O)N[C@@H](CC(=O)O)C(=O)COC(=O)c2c(Cl)cccc2Cl)C1` (mixture of isomers) [Compound 32] as the compound, how does the IC50 [1] read?
A: The IC50 was 0.1 to 10 µM.

Q: What does the source list for Z-VAD-fmk?
A: caspase-3-like activity increased by TNFα/ActD (FIG. 15A) [2]: not different; cell viability with delayed addition, comparison with compound 33MP-Na [3]: No different results

Q: What does the source list for `CC(C)[C@H](NC(=O)c1cccc2ccccc12)C1=NOC(Cc2ccccc2)(C(=O)N[C@@H](CC(=O)O)C(=O)COC(=O)c2c(Cl)cccc2Cl)C1` (stereo partly drawn) [Compound 33, (3S)-3-{3-[2-Methyl-(1S)-1-(1-naphthalenecarbonylamino)-propyl]-5-phenylmethyl-4,5-dihydro-isoxazole-5-carbonylamino}-4-keto-5-(2,6-dichlorobenzoyloxy)-pentanoic Acid]?
A: apoptotic lesions in liver [4]: reduced dose-dependently; cellular histology of liver [4]: gradually recovered; inhibition of recombinant human caspase activity (FIG. 1) [5]: almost completely inhibited all tested caspase activity, only except for caspase 2; PARP cleavage (85 kDa-cleavage product) caused by Con A (FIG. 7) [6]: gradually reduced; AST and ALT difference to Con A/vehicle group ([7]; 4 mg/kg, second experiment (AST: p=0.2972, ALT: p=0.1378)): did not reached at statistically significant level; AST and ALT activities compared with ConA/vehicle group ([7]; 20 mg/kg, second experiment (AST: p=0.0174, ALT: p=0.0011)): definitely reduced; AST activity by the compound itself (no Con A) ([7]; first experiment, not statistically significant (p=0.1033)): slightly increased; serum AST and ALT activity elevated by ConA (FIG. 4A, B) ([7]; i.p. twice, 1 hr before and 4 h after Con A, blood at 24 h): suppressed the elevated enzyme activities in a dose-dependent manner
